This note sets out measurements from US5629347A, “Aromatic compounds, pharmaceutical compositions containing them and their use in therapy” (Merck Sharp & Dohme Ltd., priority 1991, dated 1997).

In the assay the target is human NK1R (Homo sapiens, UniProt P25103). Description: biochemical. Format: binding. Conditions: displacement of 125I-substance P; human NK1R in COS or CHO cells. The method, then:
To express the cloned human neurokinin-1-receotor (NK1R) transiently in COS, the cDNA for the human NK1R was cloned into the expression vector pCDM9 which was derived from pCDM8 (INVITROGEN) by inserting the ampicillin resistance gene (nucleotide 1973 to 2964 from BLUESCRIPT SK+ (trademark, […], La Jolla, Calif., U.S.A.)) into the Sac II site. Transfection of 20 ug of the plasmid DNA into 10 million COS cells was achieved by electroporation in 800 μl of transfection buffer (135 mM NaCl, 1.2 mM CaCl2, 1.2 mM MgCl2, 2.4 mM K2 HPO4, 0.6 mM KH2 PO4, 10 mM glucose, 10 mM N-2-hydroxyethyl-piperazine-N'-2-ethane sulphonic acid (HEPES) pH 7.4) at 260 V and 950 μF using the IBI GENEZAPPER (trademark IBI, New Haven, Conn., U.S.A.). The cells were incubated in 10% fetal calf serum, 2 mM glutamine, 100 U/ml penicillin-streptomycin, and 90% DMEM media (GIBCO, Grand Island, N.Y., U.S.A.) in 5% CO2 at 37° C. for three days before the binding assay.
To establish a stable cell line expressing cloned human NK1R, the cDNA was subcloned into the vector pRcCMV (INVITROGEN). Transfection of 20 ug of the plasmid DNA into CHO cells was achieved by electroporation in 800 μl of transfection buffer supplemented with 0.625 mg/ml Herring sperm DNA at 300 V and 950 μF using the IBI GENEZAPPER (IBI). The transfected cells were incubated. in CHO media [10% fetal calf serum, 100 U/ml penicillin-streptomycin, 2 mM glutamine, 1/500 hypoxanthinethymidine (ATCC), 90% IMDM media (JRH BIOSCIENCES, Lenexa, Kans., U.S.A.), 0.7 mg/ml G418 (GIBCO)] in 5% CO2 at 37° C. until colonies were visible. Each colony was separated and propagated. The cell clone with the highest number of human NK1R was selected for subsequent applications such as drug screening.
The binding assay of human NK1R expressed in either COS or CHO cells is based on the use of ^125 I-substance P (^125 I-SP, from DU PONT, Boston, Mass.) as a radioactively labeled ligand which competes with unlabeled substance P or any other ligand for binding to the human NK1R. […] The tubes were incubated at 4° C. or at room temperature for 1 hour with gentle shaking. The bound radioactivity was separated from unbound radioactivity by GF/C filter (BRANDEL, Gaithersburg, Md.) which was prewetted with 0.1% polyethylenimine. The filter was washed with 3 ml of wash buffer (50 mM Tris pH 7.5, 5 mM MnCl2, 150 mM NaCl) three times and its radioactivity was determined by gamma counter.
(Displacement assays read how much labelled ligand stays bound in the presence of the test substance.)

Counter-ions that a name gives are not always drawn.

Chain of human NK1R (P25103 whole entry): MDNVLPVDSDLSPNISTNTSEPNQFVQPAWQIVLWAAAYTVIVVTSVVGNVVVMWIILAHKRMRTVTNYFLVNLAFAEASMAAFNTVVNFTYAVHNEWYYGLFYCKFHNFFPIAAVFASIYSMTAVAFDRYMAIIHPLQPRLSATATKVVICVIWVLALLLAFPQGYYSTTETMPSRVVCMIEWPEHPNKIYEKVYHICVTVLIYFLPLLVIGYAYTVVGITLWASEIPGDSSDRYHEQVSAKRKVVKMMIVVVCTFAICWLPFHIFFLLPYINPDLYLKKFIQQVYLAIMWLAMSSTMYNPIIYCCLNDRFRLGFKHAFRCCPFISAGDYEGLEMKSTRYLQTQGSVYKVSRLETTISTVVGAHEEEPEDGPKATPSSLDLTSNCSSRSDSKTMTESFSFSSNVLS

With `Cc1cc(C)cc(COCC(C(c2ccccc2)c2ccccc2)N(C)CC(N)=O)c1` (centres unmarked) [Example 36, 2-(N-((Carboxamido)methyl)-N-methyl)ammonium-1-((3,5-dimethylphenyl)methyloxy)-3,3-diphenyl propane oxalate salt], the 50% inhibitory concentration (IC50) (as a rule, the concentration that gives 50% inhibition) was 7 nM.

For the compound `O=C(CNC(COCc1cc(C(F)(F)F)cc(C(F)(F)F)c1)C(c1ccccc1)c1ccccc1)NCCO` (centres unmarked) [Example 50, N-(1-((3',5'-Bis(trifluoromethyl)phenyl)methyloxy)-3,3-diphenylprop-2-yl)glycine 2-hydroxyethylamide], the half-inhibitory concentration (IC50) was 1 nM.

`CCNC(COCc1cc(C)cc(C)c1)C(c1ccccc1)c1ccccc1` (centres unmarked) [Example 7, 2-Ethylammonium-1-((3,5-dimethylphenyl)methyloxy)-3,3-diphenylpropane oxalate salt] came in with a 50% inhibitory concentration (IC50) of 20 nM.

In the case of `CNC(COCc1cc(C)cc(C)c1)C(c1ccccc1)c1ccccc1` (centres unmarked) [Example 6, 2-Methylammonium-1-((3,5-dimethylphenyl)methyloxy)-3,3-diphenylpropane oxalate salt], the half-maximal inhibitory concentration (IC50) amounted to 10 nM.

For `Cc1cc(C)cc(COCC(NCC2CC2)C(c2ccccc2)c2ccccc2)c1` (centres unmarked) [Example 9, 2-Cyclopropylmethylammonium-1-((3,5-dimethylphenyl)methyloxy)-3,3-diphenylpropane tosylate salt], the IC50 was 100 nM.

As to `CC(=O)NC(COCc1cc(C)cc(C)c1)C(c1ccccc1)c1ccccc1` (centres unmarked) [Example 38, 2-Acetamido-1-(((3,5-dimethyl)phenyl)methyloxy)-3,3-diphenylpronane], the half-inhibitory concentration (IC50) was determined as 70 nM.

With `CC(=O)N(C)C(COCc1cc(C)cc(C)c1)C(c1ccccc1)c1ccccc1` (centres unmarked) [Example 37], the concentration for half-maximal inhibition (IC50) came to 200 nM.

`CC(N[C@H](COCc1cc(C(F)(F)F)cc(C(F)(F)F)c1)C(c1ccccc1)c1ccccc1)C(N)=O` (single isomer, unassigned) [58 (diastereomer B)] yielded a half-maximal inhibitory concentration (IC50) of 0.5 nM.

For `C=CCNC(COCc1cc(C)cc(C)c1)C(c1ccccc1)c1ccccc1` (centres unmarked) [Example 10, 2-Allylammonium-1-((3,5-dimethylphenyl)methyloxy)-3,3-diphenylpropane oxalate salt], the half-inhibitory concentration (IC50) was found to be 70 nM.

For `COC(=O)CNC(COCc1cc(C)cc(C)c1)C(c1ccccc1)c1ccccc1` (centres unmarked) [Example 20, 2-(N-(Carbomethoxymethyl)ammonium)-1-((3,5-dimethylphenyl)methyloxy)-3,3-diphenylpropane tosylate salt], the half-inhibitory concentration (IC50) amounted to 40 nM.

`O=C1CCC(C(=O)NC(COCc2cc(C(F)(F)F)cc(C(F)(F)F)c2)C(c2ccccc2)c2ccccc2)N1` (centres unmarked) [Example 63, 1-((3,5-Bis(trifluoromethyl)phenyl)methyloxy)-3,3-diphenyl-2-(pyroglutamylamido)propane] displayed an IC50 of 30 nM.

For the compound `Cc1cc(C)cc(COCC(C(c2ccccc2)c2ccccc2)N2CCOCC2)c1` (centres unmarked) [Example 15, 3,3-Diphenyl-1-((3,5-dimethylphenyl)methyloxy)-2-(4-morpholino)propane], the concentration for half-maximal inhibition (IC50) came to 100 nM.

In turn, `Cc1cc(C)cc(COCC(N)C(c2ccccc2)c2ccccc2)c1` (centres unmarked) [Example 1, 2-Ammoninm-1-((3,5-dimethylphenyl)methyloxy)-3,3-diphenylpronane tosylate salt] displayed a concentration for half-maximal inhibition (IC50) of 5.5 nM.

`CNC(=O)NC(COCc1cc(C(F)(F)F)cc(C(F)(F)F)c1)C(c1ccccc1)c1ccccc1` (centres unmarked) [Example 42, N-(1-((3',5'-Bis(trifluoromethyl)phenyl)methyloxy)-3,3-diphenylprop-2-yl)-N'-methyl urea] yielded an IC50 of 40 nM.

For `COc1cc(COCC(N)C(c2ccccc2)c2ccccc2)cc(OC)c1` (centres unmarked) [Example 27, 2-Ammonium-1-((3,5-dimethoxyphenyl)methyloxy-3,3-diphenylpropane oxalate salt], the concentration for half-maximal inhibition (IC50) amounted to 70 nM.

The compound `NC(=O)CNC(COCc1cc(C(F)(F)F)cc(C(F)(F)F)c1)C(c1ccccc1)c1ccccc1` (centres unmarked) [Example 30, 1-((3,5-Bis(trifluoromethyl)phenyl)methyloxy)-2-((carboxamido)methyl)ammoninm)-3,3-diphenylpropane oxalate salt] had a half-maximal inhibitory concentration (IC50) of 0.4 nM.

As to `COC(=O)CCNC(COCc1cc(C(F)(F)F)cc(C(F)(F)F)c1)C(c1ccccc1)c1ccccc1` (centres unmarked) [Example 65, 1-((3,5-Bis(trifluoromethyl)phenyl)methyloxy)-2-(2-(carbomethoxy)ethylamino)-3,3-diphenylpropane], the half-inhibitory concentration (IC50) is 35 nM.

Take `Cc1cc(C)cc(COCC(NC=O)C(c2ccccc2)c2ccccc2)c1` (centres unmarked) [Example 23, 2-Formamido-1-((3,5-dimethylphenyl)methyloxy)-3,3-diphenylpronane]: the IC50 was 35 nM.

Consider `NC(COCc1cccc(Br)c1)C(c1ccccc1)c1ccccc1` (centres unmarked) [Example 31, 2-Ammonium-1-((3-bromophenyl)methyloxy)-3,3-diphenylpropane oxalate salt], for which the 50% inhibitory concentration (IC50) was determined as 200 nM.

Regarding `Cc1cc(C)cc(COCC(C(c2ccccc2)c2ccccc2)N(C)C(=O)c2ccccc2)c1` (centres unmarked) [Example 39, 2-(((N-Methyl)benzamido)-1-((3,5-dimethyl)phenyl)methyloxy)-3,3-diphenylpropane], the IC50 is 800 nM.

As to `O=C(CCl)NC(COCc1cc(C(F)(F)F)cc(C(F)(F)F)c1)C(c1ccccc1)c1ccccc1` (centres unmarked) [Example 60], the IC50 was found to be 80 nM.

Compound `CC(N[C@H](COCc1cc(C(F)(F)F)cc(C(F)(F)F)c1)C(c1ccccc1)c1ccccc1)C(N)=O` (single isomer, unassigned) [58 (diastereomer A)] registered a 50% inhibitory concentration (IC50) of 0.4 nM.

`Cc1cc(C)cc(COCC(NCC(N)=O)C(c2ccccc2)c2ccccc2)c1` (centres unmarked) [Example 21, 2-(((Carboxamido)methyl)amino)-1-((3,5-dimethylphenyl)methyloxy)-3,3-diphenylpropane] yielded a concentration for half-maximal inhibition (IC50) of 3 nM.

`NC(COCc1cccc(I)c1)C(c1ccccc1)c1ccccc1` (centres unmarked) [Example 26, oxalate salt]: the IC50 was 140 nM.

`NC(COCc1cccc(Cl)c1)C(c1ccccc1)c1ccccc1` (centres unmarked) [Example 19, 2-Ammonium-1-((3-chlorophenyl)methyloxy)-3,3-diphenylpropane tosylate salt] yielded a 50% inhibitory concentration (IC50) of 120 nM.

On to `COCCNC(=O)CNC(COCc1cc(C(F)(F)F)cc(C(F)(F)F)c1)C(c1ccccc1)c1ccccc1` (centres unmarked) [Example 51, N-(1-((3',5'-Bis(trifluoromethyl)phenyl)methyloxy)-3,3-diphenylprop-2-yl)glycine 2-methoxyethylamide], for which the half-maximal inhibitory concentration (IC50) was 1 nM.

Compound `CC(NC(COCc1cc(C(F)(F)F)cc(C(F)(F)F)c1)C(c1ccccc1)c1ccccc1)C(N)=O` (single isomer, unassigned) [41 (diastereomer A), 1-((3',5'-Bis(trifluoromethyl)phenyl)methyloxy)-2-((1-(carboxamido)ethyl)ammonium)-3,3-diphenylpropane oxalate salt] returned a concentration for half-maximal inhibition (IC50) of 0.4 nM.

`Cc1cc(C)cc(COCC(NCC(=O)O)C(c2ccccc2)c2ccccc2)c1` (centres unmarked) [Example 45, N-(1-(((3',5'-Dimethyl)phenyl)methyloxy)-3,3-diphenylprop-2-yl)glycine] registered an IC50 of 40 nM.

In the case of `CCCNC(COCc1cc(C)cc(C)c1)C(c1ccccc1)c1ccccc1` (centres unmarked) [Example 8, 2-Propylammonium-1-((3,5-dimethylphenyl)methyloxy)-3,3-diphenylpropane oxalate salt], the concentration for half-maximal inhibition (IC50) worked out at 90 nM.
